These results are taken from US8293731B2, “HIV integrase inhibitors” (Merck Sharp + Dohme Corp., priority 2005, dated 2012).

Where only a bound is given, the exact number is not on record here.

As usually defined, the IC95 is the concentration needed for an effect of 95%. High values mean weaker potency, low ones greater potency.

This assay concerns HIV. Briefly: Assay for inhibition of HIV replication (spread assay): acute HIV infection of T-lymphoid cells. It counts as cell-based. As to conditions: Human immunodeficiency virus 1, 'less than about'. The protocol: Assays for the inhibition of acute HIV infection of T-lymphoid cells were conducted in accordance with Vacca, J. P. et al., Proc. Natl. Acad. Set USA 1994, 91: 4096. […] For example, the compounds of Examples 1 to 64 were tested in this assay and found to have IC95 values of less than about 10 micromolar.
Take `C[C@H]1C[C@@H](O)CN(C)C(=O)c2c3c(c(O)c(=O)n21)C(=O)N(Cc1ccc(F)c(Cl)c1)CC3` [Example 43, (4R,6S)-11-(3-Ch1oro-4-fluorobenzyl)-4,9-dihydroxy-2,6-dimethyl-3,4,5,6,12,13-hexahydro-2H[1,4]diazocino[2,1-a]-2,6-naphthyridine-1,8,10(11H)-trione]: the IC95 is below 10 µM.

For `C[C@H]1C[C@H](O)CN(C)C(=O)c2c3c(c(O)c(=O)n21)C(=O)N(Cc1ccc(F)c(Cl)c1)CC3` [Example 44, (4S,6S)-11-(3-Chloro-4-fluorobenzyl)-4,9-dihydroxy-2,6-dimethyl-3,4,5,6,12,13-hexahydro-2H[1,4]diazocino[2,1-a]-2,6-naphthyridine-1,8,10(11H)-trione], the concentration for an effect of 95% (IC95) is below 10 µM.

On to `CN1CC(C)(C)CCn2c(c3c(c(O)c2=O)C(=O)N(Cc2ccc(F)c(Cl)c2)CC3)C1=O` [Example 45, 11-(3-Chloro-4-fluorobenzyl)-9-hydroxy-2,4,4-trimethyl-3,4,5,6,12,13-hexahydro-2H[1,4]diazocino[2,1-a]-2,6-naphthyridine-1,8,10(11H)trione], for which the IC95 is below 10 µM.

The compound `CC1CCn2c(c3c(c(O)c2=O)C(=O)N(Cc2ccc(F)c(Cl)c2)CC3)C(=O)N(C)C1` (stereo not shown) [Example 46, 11-(3-Chloro-4-fluorobenzyl)-9-hydroxy-2,4-dimethyl-3,4,5,6,12,13-hexahydro-2H[1,4]diazocino[2,1-a]-2,6-naphthyridine-1,8,10(11H)-trione] gave an IC95 below 10 µM.

Compound `CN1CCC[C@H](CO)n2c(c3c(c(O)c2=O)C(=O)N(Cc2ccc(F)c(Cl)c2)CC3)C1=O` [Example 47, (6R)-11-(3-Chloro-4-fluorobenzyl)-9-hydroxy-6-(hydroxymethyl)-2-methyl-3,4,5,6,12,13-hexahydro-2H-[1,4]diazocino[2,1-a]-2,6-naphthyridine-1,8,10(11H)-trione] showed an IC95 below 10 µM.

Compound `CN1CCC[C@H](CO)n2c(c3c(c(O)c2=O)C(=O)N(Cc2ccc(F)cc2)CC3)C1=O` [Example 48, (6R) 11-(4-Fluorobenzyl)-9-hydroxy-6-(hydroxymethyl)-2-methyl-3,4,5,6,12,13-hexahydro-2H-[1,4]diazocino[2,1-a]2,6-naphthyridine-1,8,10(11H)-trione] returned an IC95 below 10 µM.

Consider `CN1CCC[C@@H](CO)n2c(c3c(c(O)c2=O)C(=O)N(Cc2ccc(F)c(Cl)c2)CC3)C1=O` [Example 49, (6S)-11-(3-Chloro-4-fluorobenzyl)-9-hydroxy-6-(hydroxymethyl)-2-methyl-3,4,5,6,12,13-hexahydro-2H-[1,4]diazocino[2,1-a]-2,6-naphthyridine-1,8,10(11H)-trione], for which the IC95 is below 10 µM.

The compound `C=C1CCCN(C)C(=O)c2c3c(c(O)c(=O)n21)C(=O)N(Cc1ccc(F)c(Cl)c1)CC3` [Example 50, 11-(3-chloro-4-fluorobenzyl)-9-hydroxy-2-methyl-6-methylene-3,4,5,6,12,13-hexahydro-2H-[1,4]diazocino[2,1-a]2,6-naphthyridine-1,8,10(11H)trione] gave an IC95 below 10 µM.

In turn, `CN(C)C(=O)CN1C(=O)C(C)(C)n2c1c1c(c(O)c2=O)C(=O)N(Cc2ccc(F)c(Cl)c2)CC1` [Example 51, 2-[8-(3-Chloro-4-fluorobenzyl)-6-hydroxy-3,3-dimethyl-2,5,7-trioxo-2,3,7,8,9,10-hexahydroimidazo[2,1-a]-2,6-naphthyridin-1(5H)-yl]-N,N-dimethylacetamide] had an IC95 below 10 µM.

`CNC(=O)CN1C(=O)C(C)(C)n2c1c1c(c(O)c2=O)C(=O)N(Cc2ccc(F)c(Cl)c2)CC1` [Example 52, 2-[8-(3-Chloro-4-fluorobenzyl)-6-hydroxy-3,3-dimethyl-2,5,7-trioxo-2,3,7,8,9,10-hexahydroimidazo[2,1-a]-2,6-naphthyridin-1(5H)-yl]-N-methylacetamide]: the IC95 is below 10 µM.
